From patent US20220267280A1, “SMALL MOLECULE STIMULATORS OF THE CORE PARTICLE OF THE PROTEASOME” (Purdue Research Foundation, priority 2019, published 2022)
pEC50: −log10 of the molar value. “Also recorded” adds a separate entry of the source.

Tests used:
20S CP [1] = assay: standard FRET assay with the standard 20S CP; assay type: biochemical; settings: for % activity increase (increase in 20S proteasome activity): derivative at 25 μM, in triplicate
Method: (§1) Miconazole was discovered as a stimulator of the 20S CP during a screen of the NIH Clinical Collection (NCC), using our previously described FRET assay.^15,21 However, this screen utilized a modulated FRET peptide that substituted an aspartic acid for the phenylalanine. Hydrolysis of the FRET peptide produces a fluorescent signal that can be monitored over time to determine the activity level of the 20S CP. Screening the NCC was performed in 384-well plates on a Tecan plate reader, monitoring the emission wavelength of the FRET peptide over a 1 hr period. Each compound was screened at a final concentration of 25 μM in singlet. A linear regression was performed for the change in fluorescence over time, producing a slope. This value for each compound was then compared to that of a DMSO control (20S CP basal level activity), which was included in triplicate for each plate. Primary hit compounds were determined to be those with a slope 50% greater than that of the DMSO control.
All primary hits were then validated in triplicate, using this reporter and the standard FRET reporter. Following triplicate validation, the hits were purchased from other sources and tested once again for the effect of each on the 20S CP, using the standard FRET assay (FIG. 2A).
Following a mechanistic analysis of miconazole, a dose-response study was performed using the FRET assay and the standard 20S CP.
Each derivative of miconazole is tested at 25 μM in triplicate, using our standard FRET assay. Included in each plate is 25 μM miconazole in triplicate as a positive control. This is also performed to determine how well a derivative compares to the original compound. Derivatives that enhance 20S CP activity are then used for further study.

20S CP [2] = assay: GFP-α-synuclein fusion cell assay, Western blot for GFP; assay type: cell-based; settings: for alpha-synuclein degradation (quantitation of gel bands): 25 μM for 16 hrs, duplicate
Source text: In this study, HEK-293T cells are transiently transfected to express a GFP-α-synuclein construct. α-Synuclein is a known substrate of the 20S CP, whereas GFP is too large and well-folded to enter the gate of the 20S CP for degradation. Therefore, 20S CP-mediated hydrolysis of this construct degrades the α-synuclein portion, leaving behind free GFP. […] After this time period, the cells were lysed and analyzed by Western blot for GFP. Because 20S CP-mediated hydrolysis of this fusion protein can only degrade the α-synuclein portion, the Western blot produces two clear bands, corresponding to the full fusion protein (GFP-α-synuclein) and free GFP. Quantitative analysis is performed for each sample, quantifying the relative densities of each band. The ratio of free GFP to the GFP-α-synuclein fusion was calculated. This calculated ratio of the miconazole-treated cell lysates was compared to the control (DMSO) to determine a change in 20S CP-mediated degradation.
We perform similar studies to those described above for each derivative that warrants further evaluation, including: a mechanistic analysis (FRET assay using the immunoproteasome and 26S proteasome), dose-response study to determine the EC50 of each compound, and the GFP-α-synuclein cell assay to examine the effectiveness of the miconazole derivative in cells. For the cell assay, miconazole is included as a positive control.

immunoproteasome (iCP) = assay: FRET assay using the immunoproteasome; assay type: biochemical; settings: 25 μM
Method: (§2) In order to determine the general mechanism of action of miconazole (i.e. allosteric modulator of a hydrolysis activity or “gate-opener”), a series of FRET assays were performed with 25 μM miconazole, using the immunoproteasome (iCP) and the 26S proteasome. The immunoproteasome contains a high degree of similarity to the standard 20S CP (sCP); however, the catalytic β-subunits have been exchanged, leading to a variation in the hydrolysis activities of this protease compared to the standard 20S CP.^22 The gates of both the immunoproteasome and the 20S CP are identical. The 26S proteasome is the standard 20S CP that has been capped by the 19S regulatory particle, which binds the a-ring of the 20S CP and creates an open-gate conformation.^23 Gate-openers of the 20S CP should still impact the activity of the immunoproteasome; however, because the gate is precluded in the 26S proteasome, this type of stimulator is believed to be ineffective with this isoform of the proteasome Similarly, a stimulator that is able to enhance at least one of the catalytic sites of the 20S CP specifically may be ineffective with the immunoproteasome, as this isoform contains different catalytic subunits than the standard 20S CP. This type of stimulator will still impact the activity of the 26S proteasome, as it contains the standard 20S CP.

26S proteasome = assay: FRET assay using the 26S proteasome; assay type: biochemical; settings: 25 μM
Method: as §2

20S CP [3] = assay: screen of the NIH Clinical Collection, FRET assay with modulated FRET peptide; assay type: biochemical; settings: 25 μM, singlet, 1 hr
Method: as §1

| % activity increase (increase in 20S proteasome activity) (20S CP [1]) [%] | SMILES | other results |
| --- | --- | --- |
| 232 | FC(F)(F)c1ccc(COC(Cn2ccnc2)c2ccc(Cl)cc2Cl)cc1 (stereo not shown) [MDX2] | alpha-synuclein degradation (quantitation of gel bands) (20S CP [2]): increase in alpha-synuclein degradation |
| 0 | CC(C)(C)c1ccc(C[n+]2ccn(CC(OCc3ccc(Cl)cc3Cl)c3ccc(Cl)cc3Cl)c2)cc1.[Br-] (stereo not shown) [MDX3] | – |
| 248 | CC(C)(C)c1ccc(COC(Cn2ccnc2)c2ccc(Cl)cc2Cl)cc1 (stereo not shown) [MDX1] | alpha-synuclein degradation (quantitation of gel bands) (20S CP [2]): increase in alpha-synuclein degradation |

Second part, the molecule before the results:

| SMILES | % activity increase (increase in 20S proteasome activity) (20S CP [1]) [%] | other results |
| --- | --- | --- |
| Fc1ccc(COC(Cn2cccc2)c2ccc(Cl)cc2Cl)c(F)c1 (stereo not shown) [MD2] | 0 | – |
| Clc1ccc(C(Cn2cccc2)OCc2ccccc2)c(Cl)c1 (stereo not shown) [MD3] | 0 | – |
| C#CC[n+]1ccn(CC(OCc2ccc(Cl)cc2Cl)c2ccc(Cl)cc2Cl)c1.[Br-] (stereo not shown) [MD8] | 0 | – |
| Clc1ccc(C(Cn2cccc2)OCc2ccc(Br)cc2Br)c(Cl)c1 (stereo not shown) [MD4] | 0 | – |
| Cc1ccc(COC(Cn2cccc2)c2ccc(Cl)cc2Cl)c(C)c1 (stereo not shown) [MD1] | 0 | – |
| Clc1ccc(COC(Cn2ccnc2)c2ccc(Cl)cc2Cl)c(Cl)c1 (stereo not shown) [miconazole, reference compound] | – | effect on immunoproteasome (iCP) activity (immunoproteasome (iCP)): effective stimulator; also recorded: stimulatory effect; effect on 26S proteasome activity (26S proteasome): no effect; effect on standard 20S CP (sCP) activity (20S CP [1]; 25 μM): effective stimulator; also recorded: stimulatory effect; pEC50 (20S CP [1]; read-out: EC50 (effective concentration that induces 50% of its maximum stimulatory effect), dose-response, standard 20S CP (sCP)): 4.70; increase of 20S CP activity (slope vs DMSO control) (20S CP [3]): 299%; enhancement of degradation of α-synuclein over the DMSO control (ratio of free GFP to GFP-α-synuclein) (20S CP [2]; HEK-293T cells, 25 μM, 24 hr): 200-300% |
| Clc1ccc(C(Cn2ccnc2)OCc2c(Cl)cccc2Cl)c(Cl)c1 (stereo not shown) [MD6] | 171 | – |
| Clc1ccc(C(Cn2ccnc2)OCc2ccccc2Cl)c(Cl)c1 (stereo not shown) [MD5] | 122 | – |
| Clc1ccc(COC(Cn2ccnc2)c2ccc(Cl)cc2Cl)cc1 (stereo not shown) [MD7] | 0 | – |
